Key:
CCRF-CEM cells = assay: Steady-state intracellular uptake in CCRF-CEM cells; type: in vitro ADME; conditions: 60 min incubation, 50 μM at t = 0
Excerpt: (§1) While an enzymatic MTase assay represents a valuable fast screening platform providing the information that can be directly used for SAR analyses, it is not fully predictive for the compounds’ activity in whole cells. In order to verify the ability of the compounds to reach the intracellular compartment, we measured the steady-state accumulation of representative compounds in intact CCRF-CEM, VERO-E6, and Calu-3 cells (Tables 3 and S2). […] Compound 12q was almost completely cleared from the medium after 60 min incubation with the cells rendering it among the most permeable compounds of the series based on Kp values. It should be noted that the apparent intracellular concentration of the compounds may be biased by their potential metabolism. Therefore, we decided to subject the selected derivatives to in vitro stability studies. […]
(§2) 3.3. Intracellular Uptake
(§3) Steady-state cellular uptake was measured in CCRF-CEM cells (ATCC, CRL-119), VERO-E6 cells (ATCC, CRL-1586) and Calu-3 cells (HTB-55), respectively. Suspension cells (CCRF-CEM) were treated as follows: Prior to the experiment, cells were washed by centrifugation (250 x g, 5 min) in prewarmed (37 °C) serum-free RPMI medium and resuspended in the same vehicle to a concentration of 2 x 10^7 cells per mL. The cell suspension was distributed into the microtubes in 500 μL aliquots (10^7 cells), and the uptake process was initiated by the addition of 2.5 μL of the 10 mM DMSO solutions of the compounds (50 μM final conc.). Samples were incubated for 60 min at 37 °C in a CO 2 incubator using a rotary stirrer. The uptake was terminated by centrifugation at 900 x g for 5 min, at +4 °C. The medium was stored at −20 °C for later analysis of the extracellular concentration of the compounds. The cells were washed two times with 1 mL PBS (900 x g, 5 min, +4 °C), and also stored at −20 °C for subsequent analysis of the intracellular concentration of the compounds. At the day of the analysis, both media and the pelleted cells were quickly thawed. The cell pellets were extracted with 200 μL of ice-cold methanol by vigorous shaking, further diluted 1:1 with water and centrifuged at 20 000 x g for 10 min. As for the media samples, 10 μL aliquots were extracted with 990 μL of 50% methanol. The samples were then transferred to ECHO® -compatible 384-well plates and the amount of analytes were quantified by the ECHO -MS® System (Sciex) where acoustic droplet ejection module is coupled with Sciex 6500® triple quadrupole mass spectrometer operating with an electrospray ionization source. Spectrometer was run in the multiple reaction monitoring (MRM) mode. When necessary, the processed samples were further diluted in 50% methanol to fit in the calibration range. Calibration curves of the compounds in 50% methanol were measured alongside the samples within the same run. The ra tio between the total compound concentration in the cells and compound concentration in the medium (K p) at t=60 min was calculated according to: Kp = (Acell / Vcell) / Cmedium, where Acell is the amount of compound in the cell lysate, Vcell is the CCRF-CEM cell volume (3.38 μL/10^7 cells)16 and Cmedium is the compound concentration in the medium sample after correcting for sample dilution. Experiments were performed in duplicates. […]

[1] = as above; type: in vitro ADME; conditions: human, CCRF-CEM cells, 60 min incubation, 50 μM at t = 0, read-out: Kp (intracellular accumulation ratio IC/EC)
Excerpt: as §1, §2, §3

VERO-E6 cells = assay: Steady-state intracellular uptake in VERO-E6 cells; type: in vitro ADME; conditions: VERO-E6, 60 min incubation, 50 μM at t = 0
Excerpt: as §1, §2
(§4) Steady-state cellular uptake was measured in CCRF-CEM cells (ATCC, CRL-119), VERO-E6 cells (ATCC, CRL-1586) and Calu-3 cells (HTB-55), respectively. […]
(§5) The medium was stored at −20 °C […]
(§6) for later analysis of the extracellular concentration of the compounds. The cells were washed two times with 1 mL PBS (900 x g, 5 min, +4 °C), and also stored at −20 °C for subsequent analysis of the intracellular concentration of the compounds. At the day of the analysis, both media and the pelleted cells were quickly thawed. The cell pellets were extracted with 200 μL of ice-cold methanol by vigorous shaking, further diluted 1:1 with water and centrifuged at 20 000 x g for 10 min. As for the media samples, 10 μL aliquots were extracted with 990 μL of 50% methanol. The samples were then transferred to ECHO® -compatible 384-well plates and the amount of analytes were quantified by the ECHO -MS® System (Sciex) where acoustic droplet ejection module is coupled with Sciex 6500® triple quadrupole mass spectrometer operating with an electrospray ionization source. Spectrometer was run in the multiple reaction monitoring (MRM) mode. When necessary, the processed samples were further diluted in 50% methanol to fit in the calibration range. Calibration curves of the compounds in 50% methanol were measured alongside the samples within the same run. The ra tio between the total compound concentration in the cells and compound concentration in the medium (K p) at t=60 min was calculated according to: Kp = (Acell / Vcell) / Cmedium, where Acell is the amount of compound in the cell lysate, Vcell is the CCRF-CEM cell volume (3.38 μL/10^7 cells)16 and Cmedium is the compound concentration in the medium sample after correcting for sample dilution. Experiments were performed in duplicates.
(§7) For adherent cells (Vero E6 and Calu-3), the workflow was modified as follows: Cells were seeded on 6-well plates at a concentration of […] and 8.2 x 10^5 cells/well for Vero E6 and Calu-3, respectively, in 3 mL of serum-free culture media. The cells were left to attach overnight, the medium was then aspirated and replenished with 2 mL of fresh media containing the compounds (50 µM final conc). After 60 min at 37 °C the media was aspirated and the cells were washed twice with 1 mL of PBS. Then, 1 mL of fresh PBS was added and the cells were subjected to three freeze-thaw cycles and further diluted with 1:1 with MeOH. The cell lysates and the media were further processed as described above. Intracellular volume of Vero E6 and Calu-3 cells (8.6 and 14 μL/107 cells, respectively) was calculated from their diameter determined by cell counter (Luna FL) while in suspension (following the trypsinization) assuming the homogenous spheres.

[2] = Steady-state intracellular uptake in VERO-E6 cells; type: in vitro ADME; conditions: African green monkey, VERO-E6 cells; VERO-E6, 60 min incubation, 50 μM at t = 0; read-out: Kp (intracellular accumulation ratio IC/EC)
Excerpt: as §1, §2, §4, §5, §6, §7

in vitro = conditions: African green monkey
Plasma stability, mouse = type: in vitro ADME; conditions: 5uM, triplicates
[3] = target: T1, SARS-CoV-2 nsp10-nsp16 complex (Severe acute respiratory syndrome coronavirus 2, UniProt P0DTD1); type: biochemical; conditions: tested at 1 μM by SPA assay, duplicate
T1 construct: Nsp10-nsp16 reactions contained 100 nM nsp10-nsp16 complex

| Structure (SMILES) | EC (extracellular concentration in the media at t = 60 min) ± sd (CCRF-CEM cells) [µM] | Kp at 1 h, 50 µM [1] | EC (extracellular concentration in the media at t = 60 min) ± sd (VERO-E6 cells) [µM] | Kp at 1 h, 50 µM [2] | CC50 at 3 days (in vitro) [µM] | Plasma stability Rem. at 120 min (Plasma stability, mouse) [%] | Plasma stability T1/2 (Plasma stability, mouse) | Selectivity against SARS-CoV-2 nsp10-nsp16 complex [3] | IC (intracellular concentration in the cells at t = 60 min) ± sd (VERO-E6 cells) | IC (intracellular concentration in the cells at t = 60 min) ± sd (CCRF-CEM cells) |
| --- | --- | --- | --- | --- | --- | --- | --- | --- | --- | --- |
| CCN(C[C@H]1O[C@@H](n2cc(C#Cc3nc4ccccc4[nH]3)c3c(N)ncnc32)[C@H](O)[C@@H]1O)S(=O)(=O)c1ccc(OC)c(C#N)c1 [Compound 12a] | 34 ± 0 | 188 | 42 ± 3.2 | 822 | > 100 | 119.2 ± 6.0 | Stable | – | – | – |
| COc1ccc(S(=O)(=O)N(C)C[C@H]2O[C@@H](n3cc(C#Cc4cccnc4)c4c(N)ncnc43)[C@H](O)[C@@H]2O)cc1C#N [Compound 12s] | 15 ± 3 | 604 | 2.6 ± 2.3 | 5210 | > 100 | 102.7 ± 3.4 | Stable | selective | 13,578 ± 3626 μM | – |
| COc1ccc(S(=O)(=O)N(C)C[C@H]2O[C@@H](n3cc(C#Cc4ccc(C(N)=O)cc4)c4c(N)ncnc43)[C@H](O)[C@@H]2O)cc1C#N [Compound 12r] | 12 ± 6 | 897 | 1.1 ± 0.5 | – | > 100 | 113.5 ± 6.0 | Stable | selective | 19,777 ± 7485 μM | 10,708 ± 358 μM |
| CCN(C[C@H]1O[C@@H](n2cc(C#Cc3ccc(C(N)=O)cc3)c3c(N)ncnc32)[C@H](O)[C@@H]1O)S(=O)(=O)c1ccc(OC)c(C#N)c1 [Compound 12o] | 13 ± 3 | 694 | 20.9 ± 0.8 | 247 | > 100 | 115.4 ± 3.7 | Stable | – | – | – |
| COc1ccc(S(=O)(=O)N(C)C[C@H]2O[C@@H](n3cc(C#Cc4cnc5ccccc5c4)c4c(N)ncnc43)[C@H](O)[C@@H]2O)cc1C#N [Compound 12q] | 0.6 ± 0.1 | 5320 | 0.1 ± 0.1 | – | > 100 | 113.2 ± 3.7 | Stable | selective | 18,533 ± 7709 μM | – |
| CCN(C[C@H]1O[C@@H](n2cc(C#Cc3cccnc3)c3c(N)ncnc32)[C@H](O)[C@@H]1O)S(=O)(=O)c1ccc(OC)c(C#N)c1 [Compound 12l] | 29 ± 0 | 163 | 17.1 ± 2.9 | 225 | > 100 | 109.9 ± 1.0 | Stable | – | – | – |
| CCN(C[C@H]1O[C@@H](n2cc(C#Cc3cnc4ccccc4c3)c3c(N)ncnc32)[C@H](O)[C@@H]1O)S(=O)(=O)c1ccc(OC)c(C#N)c1 [Compound 12e] | 0.2 ± 0.0 | – | 16.5 ± 3.6 | 608 | > 100 | 120.8 ± 10.5 | Stable | – | – | – |
| CCN(C[C@H]1O[C@@H](n2cc(C#Cc3ccc(N)nc3)c3c(N)ncnc32)[C@H](O)[C@@H]1O)S(=O)(=O)c1ccc(OC)c(C#N)c1 [Compound 12h] | 14 ± 1 | 480 | 19.5 ± 2.0 | 885 | > 100 | 108.2 ± 4.2 | Stable | – | – | – |

— article PMC10398685 (ACS Omega, 2023)
